Assay results taken from patent US20250230193A1, “CYCLIC COMPOUND HAVING SELECTIVE KRAS INHIBITORY EFFECT ON HRAS AND NRAS” (CHUGAI SEIYAKU KABUSHIKI KAISHA, priority 2022, published 2025).

Assays:
[1] = target: GDP-bound HRAS wild-type protein (Homo sapiens, UniProt P01112); experiment: Binding to HRAS by surface plasmon resonance (SPR), Single Cycle Kinetics; conditions: KD ratio, GDP-bound HRAS wild-type vs GDP-bound KRAS wild-type, SPR
[2] = target: GDP-bound NRAS wild-type protein (Homo sapiens, UniProt P01111); experiment: Binding to NRAS by surface plasmon resonance (SPR), Single Cycle Kinetics; conditions: KD ratio, GDP-bound NRAS wild-type vs GDP-bound KRAS wild-type, SPR
GDP-bound NRAS wild-type protein, sequence (P01111 whole entry): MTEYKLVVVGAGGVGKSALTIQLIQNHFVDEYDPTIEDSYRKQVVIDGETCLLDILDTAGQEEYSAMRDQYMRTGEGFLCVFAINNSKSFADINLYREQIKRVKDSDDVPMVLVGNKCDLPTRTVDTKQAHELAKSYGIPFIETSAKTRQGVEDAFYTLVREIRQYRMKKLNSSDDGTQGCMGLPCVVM

GDP-bound HRAS wild-type protein, sequence (P01112 whole entry): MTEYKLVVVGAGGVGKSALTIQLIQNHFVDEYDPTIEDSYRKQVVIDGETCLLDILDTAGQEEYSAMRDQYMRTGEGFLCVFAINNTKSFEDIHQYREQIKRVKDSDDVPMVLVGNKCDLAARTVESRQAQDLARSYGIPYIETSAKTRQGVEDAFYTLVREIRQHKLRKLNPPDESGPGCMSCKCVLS

Compound | HRAS/KRAS (ratio of KD value with respect to HRAS to KD value with respect to KRAS) [1] | NRAS/KRAS (ratio of KD value with respect to NRAS to KD value with respect to KRAS) [2]
CCO[C@@H]1C[C@H]2C(=O)NC3(CCC3)C(=O)N(C)[C@@H](C3CCCC3)C(=O)N(C)[C@H](C(=O)N3CCOCC3)CC(=O)N(C)[C@@H](Cc3ccsc3)C(=O)N[C@@H]([C@@H](C)CC)C(=O)N(C)CC(=O)N(C)[C@H]3CCCCCN(C3=O)[C@@H](Cc3ccc(F)cc3)C(=O)N(C)CC(=O)N[C@@H](CCc3cc(F)c(C(F)(F)F)c(F)c3)C(=O)N2C1 [PP1184] | B (a compound having 3 or more and less than 10 is denoted as B) | B (a compound having 3 or more and less than 10 is denoted as B)
CCO[C@@H]1C[C@H]2C(=O)NC3(CCC3)C(=O)N(C)[C@@H](C3CCCC3)C(=O)N(C)[C@H](C(=O)N3CCOCC3)CC(=O)N(C)[C@@H](Cc3ccccc3C#N)C(=O)N[C@@H]([C@@H](C)CC)C(=O)N(C)CC(=O)N(C)[C@H]3CCCCCN(C3=O)[C@@H](Cc3ccc(F)cc3)C(=O)N(C)CC(=O)N[C@@H](CCc3cc(F)c(C(F)(F)F)c(F)c3)C(=O)N2C1 [PP1185] | B (a compound having 3 or more and less than 10 is denoted as B) | B (a compound having 3 or more and less than 10 is denoted as B)
CCO[C@@H]1C[C@H]2C(=O)NC3(CCC3)C(=O)N(C)[C@@H](C3CCCC3)C(=O)N(C)[C@H](C(=O)N3CCOCC3)CC(=O)N(C)[C@@H](Cc3cccc(C#N)c3)C(=O)N[C@@H]([C@@H](C)CC)C(=O)N(C)CC(=O)N(C)[C@H]3CCCCCN(C3=O)[C@@H](Cc3ccc(F)cc3)C(=O)N(C)CC(=O)N[C@@H](CCc3cc(F)c(C(F)(F)F)c(F)c3)C(=O)N2C1 [PP1186] | B (a compound having 3 or more and less than 10 is denoted as B) | B (a compound having 3 or more and less than 10 is denoted as B)
CCO[C@@H]1C[C@H]2C(=O)NC3(CCC3)C(=O)N(C)[C@@H](C3CCCC3)C(=O)N(C)[C@H](C(=O)N3CCOCC3)CC(=O)N(C)[C@@H](Cc3ccc(C#N)cc3)C(=O)N[C@@H]([C@@H](C)CC)C(=O)N(C)CC(=O)N(C)[C@H]3CCCCCN(C3=O)[C@@H](Cc3ccc(F)cc3)C(=O)N(C)CC(=O)N[C@@H](CCc3cc(F)c(C(F)(F)F)c(F)c3)C(=O)N2C1 [PP1187] | B (a compound having 3 or more and less than 10 is denoted as B) | B (a compound having 3 or more and less than 10 is denoted as B)
CCO[C@@H]1C[C@H]2C(=O)NC3(CCC3)C(=O)N(C)[C@@H](C3CCCC3)C(=O)N(C)[C@H](C(=O)N3CCOCC3)CC(=O)N(C)[C@@H](Cc3ccc(Cl)c(Cl)c3)C(=O)N[C@@H]([C@@H](C)CC)C(=O)N(C)CC(=O)N(C)[C@H]3CCCCCN(C3=O)[C@@H](Cc3ccc(F)cc3)C(=O)N(C)CC(=O)N[C@@H](CCc3cc(F)c(C(F)(F)F)c(F)c3)C(=O)N2C1 [PP1188] | B (a compound having 3 or more and less than 10 is denoted as B) | B (a compound having 3 or more and less than 10 is denoted as B)
CCO[C@@H]1C[C@H]2C(=O)NC3(CCC3)C(=O)N(C)[C@@H](C3CCCC3)C(=O)N(C)[C@H](C(=O)N(C)C)CC(=O)N(C)[C@@H](C)C(=O)N[C@@H]([C@@H](C)CC)C(=O)N(C)CC(=O)N(C)[C@H]3CCCCCN(C3=O)[C@@H](Cc3ccc(F)cc3)C(=O)N(C)CC(=O)N[C@@H](CCc3cc(F)c(C(F)(F)F)c(F)c3)C(=O)N2C1 [PP1189] | B (a compound having 3 or more and less than 10 is denoted as B) | B (a compound having 3 or more and less than 10 is denoted as B)
CCO[C@@H]1C[C@H]2C(=O)NC3(CCC3)C(=O)N(C)[C@@H](C3CCCC3)C(=O)N(C)[C@H](C(=O)N(C)C)CC(=O)N(C)[C@@H](CC)C(=O)N[C@@H]([C@@H](C)CC)C(=O)N(C)CC(=O)N(C)[C@H]3CCCCCN(C3=O)[C@@H](Cc3ccc(F)cc3)C(=O)N(C)CC(=O)N[C@@H](CCc3cc(F)c(C(F)(F)F)c(F)c3)C(=O)N2C1 [PP1190] | B (a compound having 3 or more and less than 10 is denoted as B) | B (a compound having 3 or more and less than 10 is denoted as B)
CCO[C@@H]1C[C@H]2C(=O)NC3(CCC3)C(=O)N(C)[C@@H](C3CCCC3)C(=O)N(C)[C@H](C(=O)N(C)C)CC(=O)N(C)[C@@H](CC(F)F)C(=O)N[C@@H]([C@@H](C)CC)C(=O)N(C)CC(=O)N(C)[C@H]3CCCCCN(C3=O)[C@@H](Cc3ccc(F)cc3)C(=O)N(C)CC(=O)N[C@@H](CCc3cc(F)c(C(F)(F)F)c(F)c3)C(=O)N2C1 [PP1191] | B (a compound having 3 or more and less than 10 is denoted as B) | A (a compound having 10 or more and less than 20 is denoted as A)
CCO[C@@H]1C[C@H]2C(=O)NC3(CCC3)C(=O)N(C)[C@@H](C3CCCC3)C(=O)N(C)[C@H](C(=O)N(C)C)CC(=O)N(C)[C@@H](CC3CC3)C(=O)N[C@@H]([C@@H](C)CC)C(=O)N(C)CC(=O)N(C)[C@H]3CCCCCN(C3=O)[C@@H](Cc3ccc(F)cc3)C(=O)N(C)CC(=O)N[C@@H](CCc3cc(F)c(C(F)(F)F)c(F)c3)C(=O)N2C1 [PP1192] | A (a compound having 10 or more and less than 20 is denoted as A) | B (a compound having 3 or more and less than 10 is denoted as B)
CCO[C@@H]1C[C@H]2C(=O)NC3(CCC3)C(=O)N(C)[C@@H](C3CCCC3)C(=O)N(C)[C@H](C(=O)N(C)C)CC(=O)N(C)[C@@H](COC)C(=O)N[C@@H]([C@@H](C)CC)C(=O)N(C)CC(=O)N(C)[C@H]3CCCCCN(C3=O)[C@@H](Cc3ccc(F)cc3)C(=O)N(C)CC(=O)N[C@@H](CCc3cc(F)c(C(F)(F)F)c(F)c3)C(=O)N2C1 [PP1193] | B (a compound having 3 or more and less than 10 is denoted as B) | B (a compound having 3 or more and less than 10 is denoted as B)
CCO[C@@H]1C[C@H]2C(=O)NC3(CCC3)C(=O)N(C)[C@@H](C3CCCC3)C(=O)N(C)[C@H](C(=O)N(C)C)CC(=O)N(C)[C@@H](CCOC)C(=O)N[C@@H]([C@@H](C)CC)C(=O)N(C)CC(=O)N(C)[C@H]3CCCCCN(C3=O)[C@@H](Cc3ccc(F)cc3)C(=O)N(C)CC(=O)N[C@@H](CCc3cc(F)c(C(F)(F)F)c(F)c3)C(=O)N2C1 [PP1194] | B (a compound having 3 or more and less than 10 is denoted as B) | B (a compound having 3 or more and less than 10 is denoted as B)
CCO[C@@H]1C[C@H]2C(=O)NC3(CCC3)C(=O)N(C)[C@@H](C3CCCC3)C(=O)N(C)[C@H](C(=O)N(C)C)CC(=O)N(C)[C@@H](Cc3ccccc3)C(=O)N[C@@H]([C@@H](C)CC)C(=O)N(C)CC(=O)N(C)[C@H]3CCCCCN(C3=O)[C@@H](Cc3ccc(F)cc3)C(=O)N(C)CC(=O)N[C@@H](CCc3cc(F)c(C(F)(F)F)c(F)c3)C(=O)N2C1 [PP1195] | B (a compound having 3 or more and less than 10 is denoted as B) | B (a compound having 3 or more and less than 10 is denoted as B)
CCO[C@@H]1C[C@H]2C(=O)NC3(CCC3)C(=O)N(C)[C@@H](C3CCCC3)C(=O)N(C)[C@H](C(=O)N(C)C)CC(=O)N(C)[C@@H](Cc3cccnc3)C(=O)N[C@@H]([C@@H](C)CC)C(=O)N(C)CC(=O)N(C)[C@H]3CCCCCN(C3=O)[C@@H](Cc3ccc(F)cc3)C(=O)N(C)CC(=O)N[C@@H](CCc3cc(F)c(C(F)(F)F)c(F)c3)C(=O)N2C1 [PP1196] | B (a compound having 3 or more and less than 10 is denoted as B) | B (a compound having 3 or more and less than 10 is denoted as B)
CCO[C@@H]1C[C@H]2C(=O)NC3(CCC3)C(=O)N(C)[C@@H](C3CCCC3)C(=O)N(C)[C@H](C(=O)N(C)C)CC(=O)N(C)[C@@H](Cc3cccs3)C(=O)N[C@@H]([C@@H](C)CC)C(=O)N(C)CC(=O)N(C)[C@H]3CCCCCN(C3=O)[C@@H](Cc3ccc(F)cc3)C(=O)N(C)CC(=O)N[C@@H](CCc3cc(F)c(C(F)(F)F)c(F)c3)C(=O)N2C1 [PP1197] | B (a compound having 3 or more and less than 10 is denoted as B) | B (a compound having 3 or more and less than 10 is denoted as B)
CCO[C@@H]1C[C@H]2C(=O)NC3(CCC3)C(=O)N(C)[C@@H](C(CC)CC)C(=O)N(C)[C@H](C(=O)N(C)C)CC(=O)N(C)[C@@H](C)C(=O)N[C@@H]([C@@H](C)CC)C(=O)N(C)CC(=O)N(C)[C@H]3C/C=C\CCN(C3=O)[C@@H](Cc3ccc(C(F)(F)F)cc3)C(=O)N(C)CC(=O)N[C@@H](CCc3cc(F)c(C(F)(F)F)c(F)c3)C(=O)N2C1 [PP1199] | A (a compound having 10 or more and less than 20 is denoted as A) | A (a compound having 10 or more and less than 20 is denoted as A)
CCO[C@@H]1C[C@H]2C(=O)NC3(CCC3)C(=O)N(C)[C@@H](C(CC)CC)C(=O)N(C)[C@H](C(=O)N(C)C)CC(=O)N(C)[C@@H](CC)C(=O)N[C@@H]([C@@H](C)CC)C(=O)N(C)CC(=O)N(C)[C@H]3C/C=C\CCN(C3=O)[C@@H](Cc3ccc(C(F)(F)F)cc3)C(=O)N(C)CC(=O)N[C@@H](CCc3cc(F)c(C(F)(F)F)c(F)c3)C(=O)N2C1 [PP1200] | A (a compound having 10 or more and less than 20 is denoted as A) | AA (a compound having 20 or more is denoted as AA)
